Experimental data taken from paper PMC9779571, “Guanidine Derivatives Containing the Chalcone Skeleton Are Potent Antiproliferative Compounds against Human Leukemia Cells” (International Journal of Molecular Sciences, 2022).

Tests used:
U-937 cells = assay: MTT cytotoxicity assay, U-937; type: cell-based; conditions: Homo sapiens, U-937, 72 h, means ± SEM
Excerpt: (§1) U-937, HL-60, MOLT-3, NALM-6, and SK-MEL-1 cells were from DSMZ (German Collection of Microorganisms and Cell Cultures, Braunschweig, Germany). U-937/Bcl-2 cells were kindly provided by Dr. Jacqueline Bréard (INSERM U749, Faculté de Pharmacie Paris-Sud, Châtenay-Malabry, France). The U-937 is a pro-monocytic, human promyelocytic leukemia cell line that was isolated from a histiocytic lymphoma. HL-60 is a human acute myeloid leukemia cell line. MOLT-3 is a human acute lymphoblastic leukemia cell line. NALM-6 is a human B cell precursor leukemia. SK-MEL-1 is a human melanoma cell line growing singly or in clumps (occasional giant, polynucleated cell) in suspension. Cells were cultured in RPMI 1640 medium containing 10% (v/v) heat-inactivated fetal bovine serum, 100 μg/mL streptomycin, and 100 U/mL penicillin, incubated at 37 °C in a humidified atmosphere containing 5% CO2 as described. The doubling times of the cell lines were 24 h in HL-60, 30 h in U-937, U-937/Bcl-2, 40 h in MOLT-3 and NALM-6, and several days in SK-MEL-1 cells. Human peripheral blood mononuclear cells (PBMC) were isolated from heparin-anticoagulated blood of healthy volunteers by centrifugation with Ficoll-Paque Plus (GE Healthcare Bio-Sciences AB, Uppsala, Sweden). PBMC were also stimulated with phytohemagglutinin (2 µg/mL) for 48 h before the experimental treatment. The trypan blue exclusion method was used for counting the cells by a hemocytometer with 95% viability in all the experiments. Compounds were dissolved in dimethyl sulfoxide (DMSO) and kept under dark conditions at 25 °C. […] The cytotoxicity of the synthetic compounds was evaluated by colorimetric 3-(4,5-dimethyl-2-thiazolyl-)-2,5-diphenyl-2H-tetrazolium bromide (MTT) assay as previously described. Briefly, cells (5000 per well) were incubated with increasing concentrations of compounds for 72 h into a 96-well plate. Then, the supernatants were removed and 0.5 mg/mL MTT was added and incubated for 4 h at 37 °C. Sodium dodecyl sulfate (10% w/v) in 0.05 M HCl was added to solubilize the reaction products and the absorbance was measured at 570 nm with a reference wavelength of […] using an ELISA reader (Bio-Rad, Hercules, CA, USA). The IC50 values (concentrations inducing a 50% inhibition of cell viability) were determined graphically for each experiment by a nonlinear regression using the curve fitting routine implemented within the software Prism 5.0 (GraphPad, La Jolla, CA, USA).

HL-60 cells = assay: MTT cytotoxicity assay, HL-60; type: cell-based; conditions: Homo sapiens, HL-60, 72 h, means ± SEM
Excerpt: as §1

For `Cc1ccc(S(=O)(=O)NC(=Nc2ccc(/C=C/C(=O)c3c(O)cccc3OCc3ccccc3)cc2)N2CCN(C)CC2)cc1` [Compound 6f], the IC50 (U-937 cells) was 1.6 ± 0.6 µM and the IC50 (HL-60 cells) was 1.6 ± 1 µM.
